{"source": "patent US10206989B2", "about": "“CDCA1 epitope peptides for Th1 cells and vaccines containing the same” (OncoTherapy Science, Inc., priority 2012, dated 2019)", "type_in_all_cases": "cell-based, human", "key": {"[1]": {"tested_on": "Th cell clones", "assay": "Recognition of CDCA1 protein-loaded autologous DCs by Th clones (natural processing), IFN-gamma ELISPOT", "details": "DCs loaded with recombinant CDCA1 protein 50 micro g/ml", "excerpt": "The 6His-tagged recombinant whole CDCA1 proteins and truncated CDCA1 proteins that lack both CDCA1-derived Th epitopes recognized by CDCA1 (55-78) and CDCA1 (39-64)-specific Th cells were expressed by E. coli BL21 strains with a pET28a vector (Novagen) that has respective cDNA fragments. The truncated CDCA1 protein was used as control protein. Each recombinant protein was purified using a HisTrap FF column (GE Healthcare) according to the manufacturer's instruction. The purity of the proteins was verified by SDS-PAGE.\nThe immune response of Th cells to APCs pulsed with peptides and proteins were assessed by IFN-gamma ELISPOT assays (Human IFN-gamma ELISPOT kit, BD Biosciences) as described previously (Tomita Y et al. Cancer Sci.; 102: 697-705.). Briefly, the frequency of peptide-specific CD4^+ T cells producing interferon (IFN)-gamma per 3×10^4 bulk CD4^+ T cells upon stimulation with peptide-pulsed PBMCs (3×10^4/well), or 1×10^4 bulk CD4^+ T cells upon stimulation with peptide-pulsed HLA-DR-expressing L-cells (5×10^4/well) was analyzed. The frequency of cells producing interferon (IFN)-gamma per 1×10^5 CTLs upon stimulation with peptide-pulsed T2 cells (2×10^4/well) was also analyzed. Alternatively, 5×10^3 protein-loaded DCs were co-cultured with 2×10^4 CD4^+ T cell clones/well. […]"}, "[2]": {"tested_on": "CDCA1-A24 (56-64)-specific CTLs", "assay": "In vitro cross-presentation assay with unfixed or fixed DCs, intracellular IFN-gamma", "details": "cross presented by unfixed DCs (DC+LP); peptide 16 micro M, 3 h pulse", "experimental": "An HLA-A24^+ donor (HD2)-derived DCs were kept alive or fixed for 3 min in 0.1% glutaraldehyde (Sigma-Aldrich), pulsed with peptides (16 micro M) for 3 h, and washed 3 times. OK432 (0.1 KE/mL, Chugai Pharmaceutical Co, Tokyo, Japan) was added to induce the maturation of DCs during and after the peptide pulse. CDCA1-A24 (56-64)-reactive bulk CTLs were added at a 2:1 ratio for 6 h in medium containing 10 micro g/mL brefeldin A (Sigma-Aldrich). The brefeldin A was added to inhibit protein secretion during the stimulation. IFN-gamma production by the CDCA1-A24 (56-64)-specific CTLs was measured by intracellular labeling. The cells were stained with a FITC-labeled anti-human IFN-gamma mAb (BioLegend) in combination with a PerCP-labeled anti-human CD8 mAb (BioLegend) and a PE-labeled CDCA1-A24 (56-64)-specific tetramer. Data acquisition was performed on a FACSCalibur (BD Biosciences) and data files were analyzed with FlowJo software (Tree Star, Ashland, Oreg.)."}, "[3]": {"tested_on": "PBMCs (Th cells)", "assay": "CDCA1-LP specific CD4+ T-cell responses in PBMCs of HNC patients and healthy donors, IFN-gamma ELISPOT", "experimental": "In the ELISPOT assays for HNC patients, after 1 week of cell culture with CDCA1-LPs, the cells were collected, washed, and cultured in ELISPOT plates (1×10^5/well) with CDCA1 (55-78)-LP, CDCA1 (39-64)-LP, or control LP (HIV-LP) for 18 h. The number of CDCA1-LP-specific Th cells expressed as spot-forming cells/10^5 cells was calculated after subtracting control values (background). Responses were scored as positive when the mean number of IFN-gamma spots numbered more than 15 and more than 2-fold over background. The ELISPOT assays on HNC patients' cells were conducted in single, duplicate, or triplicate wells because of the limited number of available cells.\nThe PBMCs from the heparinized blood of HNC patients were isolated by means of Ficoll-Conray density gradient centrifugation. Fresh PBMCs from HNC patients or healthy donors were cultured with a mixture of CDCA1 (39-64)-LP and CDCA1 (55-78)-LP (10 micro g/mL each) in a final volume of 2 ml AIM-V supplemented with 5% human decomplemented plasma at 37 degrees C. (2×10^6/well, 24-well plates); IL-2 and IL-7 were added on day 0 and day 2. After 1 week of cell culture, the number of antigen-specific IFN-gamma producing T-cells was counted by ELISPOT assay. This study was conducted in a laboratory that operates under exploratory research principles, and was performed using investigative protocols. The inventors acknowledge the recommendations of the Minimal Information About T-cell Assay (MIATA) reporting framework for human T-cell assays (Britten C M et al., Immunity 2012; 37:1-2.)."}, "[4]": {"details": "HNC patients after vaccination with CDCA1-A24 (56-64) SP"}}}
{"sequence": "NPKPEVLHMIYMRALQIVYGIRLEHF [CDCA1 (39-64)]", "values": [{"measurement": "Natural processing of the Th cell epitope by DC from CDCA1-protein", "setting": "[1]", "result": "naturally processed"}, {"measurement": "IFN-gamma secreting tetramer+ CD8+ T-cells", "setting": "[2]", "result": "significant proportion"}, {"measurement": "Patients with CDCA1-LP-specific Th cell responses (number)", "setting": "[3]; [4]", "result": "12 of 16"}, {"measurement": "Patients with CDCA1-LP-specific Th cell responses (proportion)", "setting": "[3]; [4]", "result": 75, "unit": "%"}, {"measurement": "HNC patients with CDCA1-LP-specific immune responses (number)", "setting": "[3]; all HNC patients", "result": "14 of 19"}, {"measurement": "HNC patients with CDCA1-LP-specific immune responses (proportion)", "setting": "[3]; all HNC patients", "result": 74, "unit": "%"}, {"measurement": "Patients with detectable CDCA1-LP-specific Th cell responses (number)", "setting": "[3]; patients before vaccination", "result": "2 of 7"}, {"measurement": "Patients with detectable CDCA1-LP-specific Th cell responses (proportion)", "setting": "[3]; patients before vaccination", "result": 29, "unit": "%"}]}
